Test results taken from US6835751B2, “Bicyclic amino acids as pharmaceutical agents” (Warner-Dambert Company LLC, priority 1999, dated 2004).
Counter-ions that a name gives are not always drawn.

System: carrageenan-induced hyperalgesia model
Assay: Carrageenin-induced hyperalgesia, rat paw pressure test (Randall-Selitto)
Format: in vivo
Conditions: dosed orally at 30 mg/kg; 1 hour postdose
Experimental: Carrageenin-Induced Hyperalgesia
Nociceptive pressure thresholds were measured in the rat paw pressure test using an analgesimeter (Randall-Selitto method: Randall L. O. and Selitto J. J., “A method for measurement of analgesic activity on inflamed tissue,” Arch. Int. Pharmacodyn., 1957;4:409-419). Male Sprague-Dawley rats (70-90 g) were trained on this apparatus before the test day. Pressure was gradually applied to the hind paw of each rat and nociceptive thresholds were determined as the pressure (g) required to elicit paw withdrawal. A cutoff point of 250 g was used to prevent any tissue damage to the paw. On the test day, two to three baseline measurements were taken before animals were administered 100 μL of 2% carrageenin by intraplantar injection into the right hind paw.
(R)-2-Aza-spiro[4.5]decane-4-carboxylic acid hydrochloride was tested in the above carrageenan-induced hyperalgesia model. The compound was dosed orally at 30 mg/kg, and 1 hour postdose gave a percent of maximum possible effect ([…]) of 53%. At 2 hours postdose, it gave only 4.6% of MPE.

Row | SMILES | percent of maximum possible effect (APE)
1 | Cl.O=C(O)[C@H]1CNCC12CCCCC2 [(R)-2-Aza-spiro[4.5]decane-4-carboxylic acid hydrochloride] | 53%

Same assay, conditions: dosed orally at 30 mg/kg; 2 hours postdose

Row | SMILES | % of MPE
2 | Cl.O=C(O)[C@H]1CNCC12CCCCC2 [(R)-2-Aza-spiro[4.5]decane-4-carboxylic acid hydrochloride] | 4.6%

System: α2δ subunit
Assay: radioligand binding assay using [3H]gabapentin and the α2δ subunit
Conditions: [3H]gabapentin radioligand; α2δ subunit from porcine brain tissue

Row | SMILES | α2δ binding affinity
3 | NC[C@]1(CC(=O)O)C[C@H]2CC[C@H]2C1 [(1α,3α,5α)(3-Aminomethyl-bicyclo[3.2.0]hept-3-yl)-acetic Acid Hydrochloride] | 0.038 µM
4 | NCC1(CC(=O)O)C[C@H]2CCC[C@@H]2C1 (racemic) [(±)-(1α,5β)(2-Aminomethyl-octahydro-pentalen-2-yl)-acetic Acid Hydrochloride] | >10 µM
5 | NCC1(CC(=O)O)C[C@H]2CC[C@@H]2C1 (racemic) [(±)-(1α,5β)(3-aminomethyl-bicyclo[3.2.0]hept-3-yl)-ascetic Acid Hydrochloride] | 2.86 µM
6 | NCC1(CC(=O)O)C[C@H]2CCCC[C@@H]2C1 (racemic) [(±)-(1α,6β)(2-Aminomethyl-octahydro-inden-2-yl)-acetic Acid Hydrochloride] | >10 µM
7 | NC[C@]1(CC(=O)O)C[C@H]2CCC[C@H]2C1 [(1α,3α,5α)(2-Aminomethyl-octahydro-pentalen-2-yl)-acetic Acid Hydrochloride] | 1.58 µM
8 | NC[C@@]1(CC(=O)O)C[C@H]2CCCC[C@H]2C1 [((1α,6α,8β)(2-Aminomethyl-octahydro-inden-2-yl)-acetic Acid Hydrochloride] | >10 µM
9 | NC[C@]1(CC(=O)O)C[C@H]2CCCC[C@H]2C1 [(1α,6α,8α)(2-Aminomethyl-octahydro-inden-2-yl)-acetic acid hydrochloride] | 0.72 µM
10 | NC[C@@]1(CC(=O)O)C[C@H]2CC[C@H]2C1 [(1α,3β,5α)(3-Aminomethyl-bicyclo[3.2.0]hept-3-yl)-acetic acid hydrochloride] | 0.332 µM
